Assays:
human CTPS1 versus CTPS2 = assay: Human CTPS1 versus CTPS2 selectivity assessment by RapidFire/MS; type: biochemical; conditions: fold selectivity between CTPS1 and CTPS2
Method: The enzyme inhibitory activities against each target isoform of interest were determined for compounds using an optimised RapidFire high-throughput mass spectrometry (RF/MS) assay format. RF/MS assays for both human CTPS1 and CTPS2 were performed in assay buffer consisting of 50 mM HEPES (Merck), 20 mM MgCl2, 5 mM KCl, 1 mM DTT, 0.01% Tween-20, pH to 8.0 accordingly. Human full-length active C-terminal FLAG-His-tag CTPS1 (UniProtKB—P17812, CTPS[1-591]-[…], SEQ ID NO: 1) was obtained from Proteros biostructures GmbH. Human full length active C-terminal FLAG-His-Avi tagged CTPS2 (UniProtKB—Q9NRF8, CTPS2 [1-586]-[…], SEQ ID NO: 2) was obtained from Harker Bio.
Human CTPS (1 or 2) protein was prepared in 1× assay buffer to the final working protein concentration required for the reaction. A 2 uL volume per well of 2×CTPS (1 or 2) protein was mixed with 40 nL of compound using acoustic (ECHO) delivery and incubated for 10 minutes at 25° C. […] Each mixture was incubated for an appropriate amount of time per isoform within the determined linear phase of the reaction at 25° C. […]
In all cases, the enzyme converts UTP to CTP. […] Readout for data analysis was calculated as the ratio between the peak area of the product CTP and the internal standard ^13C9-^15N3-CTP. […]
Fold selectivity between CTPS1 and CTPS2 was subsequently calculated according to the following equation: […]

[1] = tested on: human mantle cell lymphoma cell line; assay: Western blot after exposure to CTPS1 inhibitor; type: cell-based; conditions: 24 hour exposure versus control; GAPDH loading control
Method: Cells were incubated on ice for 40 minutes with lysis buffer then centrifuged at 11000 rpm for 30′. Total protein extracts were collected from supernatants and protein concentrations determined using a colorimetric assay. 30 μg of proteins were separated by SDS-PAGE using precast gels and transferred to membranes using the Trans-Blot Turbo system. Membranes were blocked for 1 hour in a 5% dry milk, TBS-Tween20 solution and incubated with primary antibodies overnight at 4° C. Membranes were incubated for at least 1 hour with secondary antibodies, either goat anti-mouse or goat anti-rabbit conjugated with peroxidase. Chemiluminescence was determined using the Clarity Western ECL Substrate on the Fusion FX imaging system.

[2] = tested on: human mantle cell lymphoma cell lines; assay: RNA sequencing after exposure to CTPS1 inhibitor; type: cell-based; conditions: 24 hour exposure at IC50 versus control
Method: RNA was obtained from cancer cell lines treated with CTPS1-IA at IC50 or control for 24 hours. Libraries were prepared from 10 ng total RNA. mRNA poly(A) tails were tagged with universal adapters, sample-specific barcodes and unique molecular identifiers using template switching reverse transcriptase. Barcoded cDNAs from multiple samples were then pooled, amplified and tagmented using a transposon-fragmentation approach which enriches for 3′ ends of cDNA. A library of 350-800 bp length was run on an Illumina NovaSeq 6000 using NovaSeq 6000 SP Reagent Kit 100 cycles (ref #20027464). Raw fastq pairs used for analysis matched the following criteria: the 16 bases of the first read correspond to 6 bases for a sample-specific barcode and 10 bases for a unique molecular identifier. The second read (58 bases) corresponds to the captured poly(A) RNAs sequence. Demultiplexing of these fastq pairs was performed to generate one single-end fastq for each of the 96 samples. fastq files were then aligned with bwa to reference mRNA sequences and the mitochondrial genomic sequence (UCSC). DGE profiles were generated by parsing the alignment files (.bam) and counting for each sample the number of unique molecular identifiers associated with each RefSeq gene. Reads aligned on multiple genes, containing more than one mismatch with the reference sequence, or containing a polyA pattern were discarded. […]

human CTPS1 = human CTPS1 (Homo sapiens (Human), UniProt P17812); assay: Human CTPS1 enzyme inhibition, ADP-Glo Max assay; type: biochemical; conditions: Human CTPS1 Enzyme Inhibition data
Method: The enzyme inhibitory activities of compounds CTPS1-IA and CTPS1-IB against CTPS1 were determined using the ADP-Glo™ Max assay (Promega, UK).
Assays for human CTPS1 were performed in 1× assay buffer containing 50 mM Tris, 10 mM MgCl2, 0.01% Tween-20, pH to 8.0 accordingly. Finally, immediately before use, L-cysteine was added to the 1× assay buffer to a final concentration of 2 mM. All reagents are from Sigma-Aldrich unless specified otherwise. Human full length active C-terminal FLAG-His8-tag CTPS1 (UniProtKB—P17812, CTPS[1-591]-[…], SEQ ID NO: 1) was obtained from Proteros biostructures GmbH.
3× human CTPS1 protein was prepared in 1× assay buffer to the final working protein concentration required for the reaction. […] The enzymatic reaction was then initiated by addition of a 2 uL per well volume of a pre-mixed substrate mix (UltraPure ATP from ADP-Glo™ Max kit (0.31 mM), GTP (0.034 mM), UTP (0.48 mM) and L-glutamine (0.186 mM)) and the mixture was incubated for an appropriate amount of time within the determined linear phase of the reaction at 25° C. under sealed plate conditions with constant agitation at 500 revolutions per minute (rpm). ADP-Glo™ Max reagent was added for 60 minutes (6 μL per well) and subsequently ADP-Go™ Max development reagent was added for 60 minutes (12 uL per well) prior to signal detection in a microplate reader (EnVision® Multilabel Reader, Perkin Elmer). […]

human CTPS1, sequence (P17812 whole entry): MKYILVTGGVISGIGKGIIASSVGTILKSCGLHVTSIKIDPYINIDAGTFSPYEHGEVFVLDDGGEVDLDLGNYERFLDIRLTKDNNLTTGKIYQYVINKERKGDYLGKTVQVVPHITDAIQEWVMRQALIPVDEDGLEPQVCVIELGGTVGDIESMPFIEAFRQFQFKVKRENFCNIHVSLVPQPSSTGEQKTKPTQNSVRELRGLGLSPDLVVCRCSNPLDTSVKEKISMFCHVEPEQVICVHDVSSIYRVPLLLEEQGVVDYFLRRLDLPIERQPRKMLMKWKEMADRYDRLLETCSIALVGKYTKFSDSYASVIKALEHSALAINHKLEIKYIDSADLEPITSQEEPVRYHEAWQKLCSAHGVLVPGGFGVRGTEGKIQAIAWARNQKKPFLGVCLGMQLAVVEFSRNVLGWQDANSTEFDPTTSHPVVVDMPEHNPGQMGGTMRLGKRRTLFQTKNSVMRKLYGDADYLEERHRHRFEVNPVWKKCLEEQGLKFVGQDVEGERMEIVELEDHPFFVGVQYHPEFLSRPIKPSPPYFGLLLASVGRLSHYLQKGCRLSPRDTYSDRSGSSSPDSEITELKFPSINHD

IC50 (human CTPS1) [nM]	Compound	Selectivity (human CTPS1 versus CTPS2) [fold]	BCL2 protein [1]	MCL1 protein [1]	BCL2 transcripts [2]	MCL1 transcripts [2]
≤ 100	CCOc1cncc(-c2ccc(NC(=O)C3(c4ccnc(NS(=O)(=O)C5CC5)n4)CCOCC3)nc2)n1 [CTPS1-IA, 4-(2-(cyclopropanesulfonamido)pyrimidin-4-yl)-N-(5-(6-ethoxypyrazin-2-yl)pyridin-2-yl)tetrahydro-2H-pyran-4-carboxamide]	>60	increase	decrease	increase	decrease
≤ 100	CCOc1cncc(-c2ccc(NC(=O)C3(c4ccnc(NS(=O)(=O)CC)n4)CCOCC3)nc2)n1 [CTPS1-IB, N-(5-(6-ethoxypyrazin-2-yl)pyridin-2-yl)-4-(2-(ethylsulfonamido)pyrimidin-4-yl)tetrahydro-2H-pyran-4-carboxamide]	>60	–	–	–	–
